Measurements: ChEMBL document CHEMBL1667742, “Angiotensin II receptor type 1 (AT1) selective nonpeptidic antagonists--a perspective” (Bioorg Med Chem, 2010)
Numbering of substitutions follows the chain as printed. Blank lines part the entries; values can stand above or below the compound they belong to.

What was measured:
Rattus norvegicus [1] = organism: Rattus norvegicus; assay: Antihypertensive activity in renal hypertensive rat model assessed as reduction of blood pressure; format: functional
[2] = Oral bioavailability in rat; format: ADME, organism-based; conditions: in vivo
[3] = Binding affinity to angiotensin AT1 receptor in bovine adrenal cortex membranes
[4] = molecular target: T1, Type-1 angiotensin II receptor (Oryctolagus cuniculus, UniProt P34976); assay: Antagonist activity at angiotensin AT1 receptor in rabbit aortic strip assessed as inhibition of angiotensin 2-induced contractile response; format: functional; conditions: read-out: pA2 (converted)
T1 sequence (P34976 whole entry): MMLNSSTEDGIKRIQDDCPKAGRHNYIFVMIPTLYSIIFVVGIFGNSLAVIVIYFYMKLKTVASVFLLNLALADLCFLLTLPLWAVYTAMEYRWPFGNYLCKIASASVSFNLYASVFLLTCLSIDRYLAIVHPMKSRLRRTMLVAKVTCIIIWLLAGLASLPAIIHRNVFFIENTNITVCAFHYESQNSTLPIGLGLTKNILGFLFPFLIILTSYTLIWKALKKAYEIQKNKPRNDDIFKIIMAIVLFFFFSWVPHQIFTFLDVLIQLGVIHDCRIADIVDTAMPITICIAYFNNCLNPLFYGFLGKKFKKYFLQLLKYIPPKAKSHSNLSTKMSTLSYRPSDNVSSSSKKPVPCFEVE

[5] = molecular target: T1, Type-1 angiotensin II receptor; assay: (§1) Antagonist activity at angiotensin AT1 receptor in rabbit aorta; format: functional, tissue-based
[6] = Binding affinity to angiotensin AT1 receptor in rat cortical membranes; format: cell membranes
[7] = (§2) Antagonist activity at angiotensin AT1 receptor in rat liver membranes; format: functional, cell membranes, Membrane
Rattus norvegicus [8] = assay: Antihypertensive activity in po dosed conscious goldblatt hypertensive rat model assessed as reduction of angiotensin 2-induced mean arterial blood pressure; format: functional; conditions: Artery
Rattus norvegicus [9] = assay: Antihypertensive activity in renal hypertensive rat model assessed as reduction of mean arterial blood pressure at 30 mg/kg, po; format: functional, Artery; parameters: scale not given: the % may be the effect or the level left
Rhesus monkey = assay: Antihypertensive activity in salt depleted normotensive monkey model assessed as reduction of blood pressure at 10 mg/kg, po; format: functional, Macaca mulatta; parameters: scale not given: the % may be the effect or the level left
Rattus norvegicus [10] = assay: Antihypertensive activity in renal hypertensive rat model assessed as reduction of mean arterial blood pressure at 10 mg/kg, po; format: functional, Artery; parameters: scale not given: the % may be the effect or the level left
[11] = molecular target: T2, Type-1 angiotensin II receptor (Oryctolagus cuniculus) (UniProt P34976); assay: as §1; format: functional, tissue-based
T2 sequence (whole entry): T1 sequence (P34976 whole entry)

Rattus norvegicus [12] = organism: Rattus norvegicus; assay: as §2; format: functional, cell membranes; conditions: Membrane
Rattus norvegicus [13] = assay: Antihypertensive activity in furosemide-treated sodium depleted rat model assessed as reduction of blood pressure at 10 mg/kg, po; format: functional
[14] = Half life in rat; format: ADME, organism-based; conditions: in vivo
Rattus norvegicus [15] = assay: Antihypertensive activity in furosemide-treated sodium depleted rat model assessed as reduction of blood pressure at 3 mg/kg, po; format: functional
Rattus norvegicus [16] = assay: Antihypertensive activity in po dosed renal hypertensive rat model assessed as reduction of angiotensin 2-induced blood pressure up to 24 hrs; format: functional
Rattus norvegicus [17] = assay: Antihypertensive activity in iv dosed renal hypertensive rat model; format: functional; conditions: read-out: ED50
[18] = Displacement of radiolabeled angiotensin2 from angiotensin AT1 receptor in rat vascular smooth muscle
[19] = Displacement of radiolabeled angiotensin2 from angiotensin AT1 receptor in rat adrenal cortex membranes; format: cell membranes, Membrane
[20] = molecular target: T3, Type-1 angiotensin II receptor (Bos taurus) (UniProt P25104); assay: Binding affinity to angiotensin AT1 receptor in bovine adrenal cortex membranes; format: cell membranes; conditions: Membrane
T3 sequence (whole entry): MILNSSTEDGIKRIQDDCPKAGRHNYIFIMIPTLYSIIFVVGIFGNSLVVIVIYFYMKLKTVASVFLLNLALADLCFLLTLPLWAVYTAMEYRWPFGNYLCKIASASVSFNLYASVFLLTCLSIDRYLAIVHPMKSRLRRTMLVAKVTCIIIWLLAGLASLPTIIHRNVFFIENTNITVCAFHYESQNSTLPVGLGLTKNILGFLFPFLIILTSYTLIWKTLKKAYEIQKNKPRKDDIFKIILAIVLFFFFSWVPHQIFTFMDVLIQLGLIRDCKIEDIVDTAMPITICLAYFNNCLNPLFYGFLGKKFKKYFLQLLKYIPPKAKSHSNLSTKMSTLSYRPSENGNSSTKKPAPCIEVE

[21] = Antagonist activity at angiotensin AT1 receptor in rat kidney homogenates; format: functional, tissue-based
[22] = Binding affinity to angiotensin AT1 receptor in rat liver membranes; format: cell membranes, Membrane
Rattus norvegicus [23] = assay: Antihypertensive activity in po dosed renal hypertensive rat model; format: functional; conditions: read-out: ED50
[24] = Antagonist activity at angiotensin AT1 receptor in rat adrenal cortical membranes; format: functional, cell membranes
[25] = molecular target: T4, Type-1 angiotensin II receptor (Homo sapiens) (UniProt P30556); assay: Binding affinity to angiotensin AT1 receptor
T4 sequence (whole entry): T1 sequence (P34976 whole entry) with M2I, A49V, V254I, V270I, H272R, K311R, S349T, V353A

[26] = Antagonist activity at angiotensin AT1 receptor in rat mesenteric artery; format: functional
[27] = molecular target: T5, Type-1 angiotensin II receptor (Cavia porcellus, UniProt Q9WV26); assay: Antagonist activity at angiotensin AT1 receptor in guinea pig ileum; format: functional, tissue-based; conditions: read-out: pA2 (converted)
T5 sequence (Q9WV26 whole entry): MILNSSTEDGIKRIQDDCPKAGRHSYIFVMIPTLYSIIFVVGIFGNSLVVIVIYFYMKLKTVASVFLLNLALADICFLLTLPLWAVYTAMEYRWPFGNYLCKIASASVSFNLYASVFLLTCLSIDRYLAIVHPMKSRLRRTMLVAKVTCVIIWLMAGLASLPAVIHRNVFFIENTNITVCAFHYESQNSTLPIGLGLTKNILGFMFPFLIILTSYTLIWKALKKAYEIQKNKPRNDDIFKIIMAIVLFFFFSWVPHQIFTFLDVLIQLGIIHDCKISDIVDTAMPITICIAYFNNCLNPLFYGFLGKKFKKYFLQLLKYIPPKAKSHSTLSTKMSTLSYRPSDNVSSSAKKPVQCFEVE

bioavailability [2]: 94%
Structure (SMILES): CCc1nc2c(C)cc(C)nc2n1Cc1ccc2nc(-c3ccccc3NS(=O)(=O)C(F)(F)F)ccc2c1 [GA0113]
ED25 (Rattus norvegicus [1]): 0.015 mg/kg

IC50 [3]: 11 nM
Kb [4]: 0.631 nM
Structure (SMILES): CCc1nc2c(C)cc(C)nc2n1Cc1ccc2c(c1)C(Cc1nnn[nH]1)c1ccccc1-2 (centres undefined)

IC50 [5]: 0.2 nM
IC50 [6]: 0.7 nM
Structure (SMILES): CCCCc1nc2ccn(CC(=O)N(C)C)c(=O)c2n1Cc1ccc(-c2ccccc2-c2nnn[nH]2)cc1

IC50 [7]: 5.2 nM
Structure (SMILES): Cc1nc(C)c2c(n1)N(Cc1ccc(-c3ccccc3-c3nnn[nH]3)cc1)C(=O)CC2 [TASOSARTAN]
ED50 (Rattus norvegicus [8]): 0.58 mg/kg

Activity [11]: 3.8 nM
Structure (SMILES): CCCCc1ncc(/C=C2/C(=O)N(CCCC)C(=O)N2Cc2csc(C)n2)n1Cc1ccc(C(=O)OC)cc1
Activity (Rattus norvegicus [9]): 40%
Activity (Rhesus monkey): 27%
Activity (Rattus norvegicus [10]): 25%

Activity (Rattus norvegicus [12]): 0.069 µM
bioavailability [2]: 91%
half-life [14]: 9.1 h
Structure (SMILES): CCc1nc2c(C)cc(C)nc2n1Cc1cccc([C@@H](c2ccccc2)[C@@H](C)C(=O)O)c1
Activity (Rattus norvegicus [13]): 39 mmHg
Activity (Rattus norvegicus [15]): 24 mmHg

Structure (SMILES): CCc1cc2c(c(CC)n1)CCC(=O)N2Cc1ccc(-c2ccccc2-c2nnn[nH]2)cc1
ED50 (Rattus norvegicus [16]): 3 mg/kg

IC50 [18]: 20 nM
IC50 [19]: 19 nM
Activity [20]: 11.6 nM
pA2 [21]: 7.8
IC50 [22]: 6.7 nM
IC50 [24]: 0.82 nM
Structure (SMILES): CCCCc1nc(Cl)c(CO)n1Cc1ccc(-c2ccccc2-c2nnn[nH]2)cc1 [LOSARTAN]
ED50 (Rattus norvegicus [17]): 0.78 mg/kg
ED50 (Rattus norvegicus [23]): 0.59 mg/kg

pKb [25]: 10.6
IC50 [26]: 1.3 nM
Structure (SMILES): CCCCc1nc2c(n1Cc1ccc(-c3ccccc3-c3nnn[nH]3)cc1)C(=O)N1C3CCC(CC3)N1C2

Kb [27]: 15.8 nM
Structure (SMILES): CCCc1nc2cc(C(=O)OC)[nH]c2n1Cc1ccc(-c2ccccc2C(=O)O)cc1
